Measurements from US20240309090A1, “MODULATION OF ANDROGEN SIGNALING TO INNATE IMMUNE KILLING OF PROSTATE CANCER” (Brown University, priority 2023, published 2024).

Columns and labels:
Type in all cases: cell-based
[1] = test system: AR-transduced PC3-AR and DU145 cell lines; assay: Flow cytometry of HLA-E surface expression on AR-transduced PC3 and DU145
From the text: (§1) To evaluate the modulation of the androgen receptor and tumor HLA-E expression, we astably transduced AR negative cell lines PC3 and DU145 with an Androgen Response Element (ARE) GFP reporter (FIG. 16H). […] Using AR+ constructed cell lines, PC3 and DU145, we sought to determine the dependence of HLA-E expression and possible modulation by AR. […] Although potential therapies targeting immune enhancement are being explored, the expression of exhaustion markers such as PD-1, NKG2A, and potential engaging ligands that diminish their cytotoxic function limits their application. Exploring these factors with new combination approaches, such as ARi and anti-NKG2A, and understanding the modulation of its targets upon treatment is key in overcoming immune-resistant scenarios, especially in prostate cancer.
(§2) PCa cells were plated at a density of 3×10^5 cells per well of a 6-well plate and adhered overnight. […] After treatment, cells were trypsinized, stained, and incubated (Cell Staining Buffer SouthernBiotech #0225-01S) with the corresponding antibody for 45-60 min at 4° C. Viability dye was added with each run. NK-92 cells and patient-derived cells were stained similarly. […]

[2] = test system: PC3 cell line; assay: Flow cytometry of HLA-E surface expression on AR-negative PC3; settings: non-AR-transduced PC3
From the text: as §1
Experiments were conducted with noncytotoxic doses of vorinostat (0.3 μM) and panobinostat (3 nM).
PCa cells were plated at a density of 3×10^5 cells per well of a 6-well plate and adhered overnight. […] After treatment, cells were trypsinized, stained, and incubated (Cell Staining Buffer SouthernBiotech #0225-01S) with the corresponding antibody for 45-60 min at 4° C. Viability dye was added with each run. NK-92 cells and patient-derived cells were stained similarly. Markers used for experiments included: Thermofisher HLA-E Monoclonal Antibody (3D12HLA-E), Alexa Fluor™ 488, eBioscience™, CD274 (PD-L1, B7-H1) Monoclonal Antibody (MIH1), eFluor™ 450, eBioscience™, Cell Signaling PD-1 (D4W2J) XPR Rabbit mAb, SYTOX™ Orange Dead Cell Stain, for flow cytometry, BioLegend APC anti-human CD159a (NKG2A) Antibody #375108, BioLegend APC anti-human CD69 Antibody #310909, BioLegend Alexa Fluor® 647 anti-human CD137 (4-1BB) [4B4-1] #309823. For staining of the patient-derived PBMCs and subsequent NK cell characterization, the following antibodies were used: BioLegend Anti-Perforin Mouse Monoclonal Antibody (PerCP Cy5.50, clone: dG9) #308113, BioLegend Anti-Granzyme B Mouse Monoclonal Antibody (FITC, clone: GB11) #515403, BioLegend Anti-CD56 Mouse Monoclonal Antibody (Alexa Fluor® 700, clone: 5.1H1) #362521, and BioLegend (PE anti-human CD45 Antibody) #304008.

[3] = test system: DU145; assay: Flow cytometry of HLA-E surface expression on non-AR-transduced DU145
From the text: as §1, §2

[4] = test system: 22Rv1; assay: Co-culture of 22Rv1 with NK-92 cells, immune-mediated tumor cell killing
Description: They were co-treated with enzalutamide ([…]) or darolutamide (20 μM) for 48 h. Doses of AR inhibitors (ARi) used in the co-culture experiments were based on previous IC50 experiments. […] The immune-mediated effect of NK-92 on the PCa cell lines in the presence of enzalutamide (immune enhancement death) was normalized to baseline immune and tumor cell killing in each condition [(tumor cells+immune cells)-tumor baseline death=baseline immune death]. […] Cytokine analysis was performed to investigate the activation phenotype of NK cells when treated with ARi.
Prostate cancer cell lines were dyed with the blue CMAC live-cell dye (Thermo Fisher Scientific #C2110, per manufacturer protocol). Blue-fluorescent cancer cells were plated at a density of 10,000 cells per well of a 48-well plate. NK-92 cells were dyed with green CMFDA (Cayman Chemical Company #19583, per manufacturer protocol). Green-fluorescent NK-92 cells were added to the blue-fluorescent cancer cells at a 1:1 ratio. Enzalutamide (10 μM), darolutamide (20 μM), and 1 μM ethidium homodimer (EthD-1) were added at the same time as the NK cells. After 24 hours of co-culture, images of live cancer cells, live NK cells, and dead cells were taken using a fluorescent microscope. The co-culture experiments were run with internal control conditions and as a single treatment. Normalization was performed after analysis to take baseline death conditions into each experiment run. […] Cell adhered over 24 h, and when patient-derived NK cells were added, a control well was trypsinized, and cells resuspended and counted to adjust a 1:1 ratio before treatment addition. […]
Live cancer cells, NK cells, and dead cells were quantified using FIJI (Fiji Is Just ImageJ) software for images derived from fluorescent co-culture images. Images from the ImageXpress system were quantified using MetaXpress cytoplasmic/nuclear staining software. The percent of dead tumor cells in each well was quantified, and this percentage was normalized by subtracting baseline death from cancer cell-only wells, NK cell-only wells, or both.

SMILES	HLA-E surface expression upon ARi ([1]; AR-responsive PC3-AR)	HLA-E surface expression upon ARi ([1]; AR-transduced (AR-responsive) DU145)	HLA-E expression [2] [%]	HLA-E expression [3] [%]	cell death rate (NK cell-mediated tumor killing) ([4]; 22Rv1 + NK-92 1:1, 24 hours) [%]	NK cell killing of PCa cells (immune enhancement) ([4]; 22Rv1 + NK-92 1:1, enzalutamide 10 μM, FIG. 15B) [%]
CC(O)c1cc(C(=O)N[C@@H](C)Cn2ccc(-c3ccc(C#N)c(Cl)c3)n2)n[nH]1 (stereo partly drawn) [darolutamide]	increased	increased	15.47	1.23	–	–
CNC(=O)c1ccc(N2C(=S)N(c3ccc(C#N)c(C(F)(F)F)c3)C(=O)C2(C)C)cc1F [enzalutamide]	–	–	–	–	52.67±8.96	34.84
